Measurements taken from US11033535B2, “Oxadiazoles and thiadiazoles as TGF-β inhibitors” (Southern Research Institute, priority 2017, dated 2021).
Where a name gives a salt, the structure may show the parent alone.

target: (Homo sapiens, UniProt P07996); test: Secondary Assay, inhibitory activity of thiadiazole and oxadiazole analogs as TGF-beta inhibitors; type: biochemical; conditions: Table I
Procedure: A summary of the inhibitory activity of representative thiadiazole analogs (Tables i and ii) and oxadiazole analogs (Table ii) is shown below.
For initial screening, an ELISA-based screening assay was used in which purified human platelet TSP-1 was incubated with compounds and then incubated with recombinant latent TGF-β1 (purchased from R&D Systems). Activity is measured in a commercially available ELISA which detects only active TGF-β (R &D Systems). Activity in the presence of compounds is compared to activity in TSP-1+latent TGF-β samples without inhibitory compounds (Lu et al. (2016) Am J Pathol 186:678-690).
To specifically assess activity of compounds in liver cell specific assays, two different assays were used. In the first, human hepatic stellate cells were incubated overnight in low serum media to condition the media with secreted latent TGF-β. Purified TSP1 either pre-incubated with compounds or not will be added to cultures and then conditioned media harvested to assess TGF-β biological activity using the R&D Systems ELISA as above. Hepatic stellate cells will be purchased from commercial sources. Although hepatic stellate cells are the primary drivers of liver fibrosis, conditions which drive liver fibrosis can induce hepatocyte TSP-1 expression which can then have paracrine effects on controlling TGF-β activation in hepatic stellate cells. Furthermore, TGF-β can negatively impact hepatocyte regeneration following injury. Therefore, the ability of compounds to block TSP-1 activation of latent TGF-β will also be assessed in cultured primary human hepatocytes following the protocol described for the hepatic stellate cells. Similar approaches have successfully been used to screen compounds which inhibit human myeloma cell derived latent TGF-β activation by TSP-1 (Lu et al. (2016) Am J Pathol 186:678-690).

Chain of (Homo sapiens, UniProt P07996) (P07996 whole entry): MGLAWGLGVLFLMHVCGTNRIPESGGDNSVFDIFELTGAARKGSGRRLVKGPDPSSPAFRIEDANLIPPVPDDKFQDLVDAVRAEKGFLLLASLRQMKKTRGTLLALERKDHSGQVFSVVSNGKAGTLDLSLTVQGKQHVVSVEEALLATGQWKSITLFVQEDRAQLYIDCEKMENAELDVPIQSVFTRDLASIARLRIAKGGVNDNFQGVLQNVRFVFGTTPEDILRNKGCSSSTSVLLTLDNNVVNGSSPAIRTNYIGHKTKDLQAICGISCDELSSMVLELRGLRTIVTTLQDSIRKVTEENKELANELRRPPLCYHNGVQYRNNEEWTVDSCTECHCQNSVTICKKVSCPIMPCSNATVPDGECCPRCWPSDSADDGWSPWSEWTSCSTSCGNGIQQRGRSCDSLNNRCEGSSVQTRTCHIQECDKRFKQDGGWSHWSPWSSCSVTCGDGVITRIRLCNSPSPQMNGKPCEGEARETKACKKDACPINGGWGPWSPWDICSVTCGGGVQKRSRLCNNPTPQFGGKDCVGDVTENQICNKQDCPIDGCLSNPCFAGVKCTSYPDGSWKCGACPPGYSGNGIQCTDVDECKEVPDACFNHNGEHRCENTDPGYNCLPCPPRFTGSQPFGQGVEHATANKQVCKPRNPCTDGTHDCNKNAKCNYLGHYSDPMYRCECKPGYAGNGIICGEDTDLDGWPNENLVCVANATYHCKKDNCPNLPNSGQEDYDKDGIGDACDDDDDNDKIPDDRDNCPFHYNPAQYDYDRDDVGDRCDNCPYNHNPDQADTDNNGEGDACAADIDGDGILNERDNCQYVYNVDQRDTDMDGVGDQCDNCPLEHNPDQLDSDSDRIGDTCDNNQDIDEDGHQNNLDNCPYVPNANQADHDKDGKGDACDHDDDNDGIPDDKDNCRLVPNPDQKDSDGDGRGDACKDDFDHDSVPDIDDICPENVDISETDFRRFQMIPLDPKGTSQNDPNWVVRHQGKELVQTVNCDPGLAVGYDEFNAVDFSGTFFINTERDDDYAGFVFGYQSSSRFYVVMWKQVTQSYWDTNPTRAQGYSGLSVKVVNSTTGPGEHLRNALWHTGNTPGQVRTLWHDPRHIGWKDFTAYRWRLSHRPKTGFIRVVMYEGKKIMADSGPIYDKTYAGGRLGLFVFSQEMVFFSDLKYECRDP

IC50 | Compound
0.009 µM | CC(=O)NC(Cc1ccc(CN)cc1)c1nnc(-c2cccc(C(F)(F)F)c2)s1 (stereo not shown) [Compound 41152, N-(2-(4-(aminomethyl)phenyl)-1-(5-(3-(trifluoromethyl)phenyl)-1,3,4-thiadiazol-2-yl)ethyl)acetamide hydrochloride]
0.183 µM | COc1cccc(-c2nnc(C(Cc3ccc(CN)cc3)NC(C)=O)s2)c1 (stereo not shown) [Compound 41149, N-(2-(4-(aminomethyl)phenyl)-1-(5-(3-methoxyphenyl)-1,3,4-thiadiazol-2-yl)ethyl)acetamide hydrochloride]
0.039 µM | CC(=O)NC(Cc1ccc(CN)cc1)c1nnc(-c2cc(C(F)(F)F)cc(C(F)(F)F)c2)s1 (stereo not shown) [Compound 40653, N-(2-(4-(aminomethyl)phenyl)-1-(5-(3,5-bis(trifluoromethyl)phenyl)-1,3,4-thiadiazol-2-yl)ethyl)acetamide]
0.006 µM | COc1cc(-c2nnc(C(Cc3ccc(CN)cc3)NC(C)=O)s2)cc(C(F)(F)F)c1 (stereo not shown) [Compound 42330, N-(2-(4-(aminomethyl)phenyl)-1-(5-(3-methoxy-5-(trifluoromethyl)phenyl)-1,3,4-thiadiazol-2-yl)ethyl)acetamide]
0.03 µM | CC(=O)N(C)C(Cc1ccc(CN)cc1)c1nnc(-c2cccc(OC(F)(F)F)c2)s1 (stereo not shown) [Compound 42335, N-(2-(4-(aminomethyl)phenyl)-1-(5-(3-(trifluoromethoxy)phenyl)-1,3,4-thiadiazol-2-yl)ethyl)-N-methylacetamide Hydrochloride]
0.049 µM | CC(=O)NC(Cc1ccc(CN)cc1)c1nnc(-c2ccc(F)cc2)s1 (stereo not shown) [Compound 40051, N-(2-(4-(aminomethyl)phenyl)-1-(5-(4-fluorophenyl)-1,3,4-thiadiazol-2-yl)ethyl)acetamide]
0.015 µM | CC(=O)NC(Cc1ccc(N)cc1)c1nnc(-c2cccc(OC(F)(F)F)c2)s1 (stereo not shown) [Compound 39999, N-(2-(4-aminophenyl)-1-(5-(3-(trifluoromethoxy)phenyl)-1,3,4-thiadiazol-2-yl)ethyl)acetamide]
0.061 µM | CC(=O)NC(Cc1ccc(CN)cc1)c1nnc(-c2cccc(OC(F)(F)F)c2)s1 (racemic) [Compound 41791]
0.026 µM | CC(=O)N[C@@H](Cc1ccc(CN)cc1)c1nnc(-c2cccc(OC(F)(F)F)c2)s1 (single isomer, unassigned) [Compound 41891]
0.028 µM | CC(=O)NC(Cc1ccc(CN)cc1)c1nnc(-c2cccc(OC(F)(F)F)c2)s1 (stereo not shown) [Compound 40000, N-(2-(4-(aminomethyl)phenyl)-1-(5-(3-(trifluoromethoxy)phenyl)-1,3,4-thiadiazol-2-yl)ethyl)acetamide]
0.008 µM | NCc1cccc(CC(NC(=O)C2CC2)c2nnc(-c3cccc(OC(F)(F)F)c3)s2)c1 (stereo not shown) [Compound 42468, N-(2-(3-(aminomethyl)phenyl)-1-(5-(3-(trifluoromethoxy)phenyl)-1,3,4-thiadiazol-2-yl)ethyl)cyclopropanecarboxamide]
0.005 µM | NCc1cccc(CC(NC(=O)C2CCCCC2)c2nnc(-c3cccc(OC(F)(F)F)c3)s2)c1 (stereo not shown) [Compound 42461, N-(2-(3-(aminomethyl)phenyl)-1-(5-(3-(trifluoromethoxy)phenyl)-1,3,4-thiadiazol-2-yl)ethyl)cyclohexanecarboxamide]

same assay, conditions: Table II

IC50 | Compound
0.013 µM | CC(=O)NC(CCCCN)c1nnc(C2CCCCC2)s1 (stereo not shown) [Compound 39139, N-(5-Amino-1-(5-cyclohexyl-1,3,4-thiadiazol-2-yl)pentyl)acetamide]
0.324 µM | CC(=O)NC(CCCCN)c1nnc(-c2ccc(F)cc2)s1 (stereo not shown) [Compound 39261, N-(5-Amino-1-(5-(4-fluorophenyl)-1,3,4-thiadiazol-2-yl)pentyl)acetamide]

same assay, conditions: Table II, cells that print μM

IC50 | Compound
> 1 µM | CC(=O)NC(CCCCN)c1nnc(-c2ccncc2)o1 (stereo not shown) [Compound 40074, N-(5-Amino-1-(5-(pyridin-4-yl)-1,3,4-oxadiazol-2-yl)pentyl)acetamide]
> 1 µM | CC(=O)NC(CCCCN)c1nnc(-c2ccc(F)cc2F)s1 (stereo not shown) [Compound 39425, N-(5-Amino-1-(5-(2,4-difluorophenyl)-1,3,4-thiadiazol-2-yl)pentyl)acetamide]
